Assay results as given in patent US6133311A, “Method for preventing or treating elevated blood lipid level-related diseases by administering natural phenolic compounds” (priority 1998, dated 2000).

Biological target: T1, ACAT (Rattus norvegicus, UniProt Q7TQM4)
T1 construct: microsomes were separated from liver tissues to be used as an enzyme source; from tissue; host or cells: rat liver microsomes
T1 sequence (Q7TQM4 1-524): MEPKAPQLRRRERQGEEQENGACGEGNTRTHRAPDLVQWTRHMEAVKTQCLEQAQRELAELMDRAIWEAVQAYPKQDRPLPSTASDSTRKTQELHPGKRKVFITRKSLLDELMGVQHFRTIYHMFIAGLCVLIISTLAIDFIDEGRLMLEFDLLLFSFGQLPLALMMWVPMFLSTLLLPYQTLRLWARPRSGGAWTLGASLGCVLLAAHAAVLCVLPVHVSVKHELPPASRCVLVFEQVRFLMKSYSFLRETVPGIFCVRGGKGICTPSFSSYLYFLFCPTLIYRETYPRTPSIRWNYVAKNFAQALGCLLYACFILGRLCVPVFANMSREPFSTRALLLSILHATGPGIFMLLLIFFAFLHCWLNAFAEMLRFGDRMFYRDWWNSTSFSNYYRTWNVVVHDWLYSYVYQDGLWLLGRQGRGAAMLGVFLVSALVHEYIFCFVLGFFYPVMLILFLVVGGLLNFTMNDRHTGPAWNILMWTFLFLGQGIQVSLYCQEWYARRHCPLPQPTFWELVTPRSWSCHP
Test: ACAT inhibition in liver microsomes of fed rats
Format: biochemical
Details: liver microsomes of rats fed 0.1% compound, vs Control
Procedure: Activity of Tannin or gallic acid in ACAT Inhibition
To determine the effect of feeding tannin or gallic acid to rats on the activity of ACAT, microsomes were separated from liver tissues to be used as an enzyme source.
1 g each of the livers taken from each group of rats of Example 2 was homogenized in 5 ml of homogenization medium (0.1 M KH2 PO4, pH 7.4, 0.1 mM EDTA and 10 mM β-mercaptoethanol). The homogenate was centrifuged at 3,000xg for 15 min. at 4° C. and the supernatant thus obtained was centrifuged at 15,000xg for 15 min. at 4° C. to obtain a supernatant. The supernatant was put into an ultracentrifuge tube (Beckman) and centrifuged at 100,000 xg for 1 hour at 4° C. to obtain microsomal pellets, which were then suspended in 3 ml of the homogenization medium and centrifuged at 100,000 xg for 1 hour at 4° C. […] The protein concentration of the resulting suspension was determined by Lowry's method and then adjusted to 4 to 8 mg/ml. […]
200 μl of the resulting supernatant was put in a scintillation bottle and 4 ml of scintillation fluid (Lumac) was added thereto. The mixture was assayed for radioactivity with 1450 Microbeta liquid scintillation counter (Wallacoy, Finland). ACAT activity was calculated as picomoles of cholesteryl oleate synthesized per min. per mg protein (pmoles/min/mg protein) The result is shown in Table III.

Compound | % Inhibition on ACAT activity [%]
O=C(O)c1cc(O)c(O)c(O)c1 [Gallic acid, gallic acid] | 42.1
tannin | 41.7
